Data reported in patent EP0833842B1, “NOVEL PEPTIDES FOR USE IN TREATMENT OF T-CELL MEDIATED CARTILAGE DESTRUCTION IN AUTOIMMUNE DISEASES” (Akzo Nobel N.V., priority 1995, dated 1999).
Where no end group is shown, it is not given here.

Molecular target: DR4 (DRB1*0401) (Homo sapiens, UniProt P01903+P01911, A100K/A169T/F76Y/I96L/K127E/L162R/M171V/N62H/P40V/Q125Y/R42H/S133A/S149N/S66Y/V115G/V209L/W38E)
Assay: Peptide HLA-DR binding assay (semi-quantitative competition with biotinylated marker peptide)
Settings: read-out: DRB1*0401 ^eIC50
Protocol: Two EBV-transformed B-cell lines, BSM (typed as DR4 [DRB1*0401] and BM92 (typed as DR4 [DRB1*0404) were provided by Dr. M. Oudshoom from the Academic Hospital Leiden, the Netherlands. The cells were cultured in Dulbecco's modified eagles minimal essential medium DMEM/HAM's F12 (Gibco Laboratories, Grand Island, NY) supplemented with 10% FCS (Hyclone Laboratories), 1% non-essential amino acids (ICI), L-glutamine, 2-ME and antibiotics. Cells were routinely passaged every 2-3 days in a 1:2 ratio. Cells were harvested and thereafter washed three times in phosphate buffer saline (PBS) (4°C) containing 1 mM PMSF. Cell pellets were stored at -70°C until use. HLA-DR expressing cells were thawed and lysed on ice for 30 minutes in PBS, 1% NP-40, 1 mM AEBSF (Calbiochem). The lysate was cleared of nuclei and debris by centrifugation at 15.000 rpm (Sorvall, SS34 rotor) for 30 minutes.
HLA-DR molecules were affinity purified from cell lysates using monoclonal antibody L243 (ATCC), directed against a nonpolymorphic determinant on the DR-complex (Lampson et al., J. Immunol. 125:293, 1980). Protein G sepharose purified L243 was coupled to NHS-Sepharose 4 FF (Pharmacia) according to the manufactures instructions. The cleared cell-lysate was passed through a 0.45 µm filter and added to L243-NHS-sepharose beads. […] Collected fractions were analysed on SDS-PAGE under non-reducing conditions followed by silver staining. […]
The peptide binding studies were performed using a semi-quantitative binding assay as described previously (Joosten et al., Int. Immunol. 6:751, 1994).
After approximately 48 hours incubation at room temperature, bound and unbound marker peptides were separated by SDS-PAGE under non-reducing conditions. […] Biotinylated peptides were detected by enhanced chemoluminescence using a Westem Blot ECL kit (Amersham, U.K.) according to the manufactures instructions. […]

AGWLADRSVRYPI [HAG2]
IC50: 1 to 10 µM

AGWLADGSLRYPI [HAG3]
IC50: 1 to 10 µM

AGWLSDGSVQYPI [HCLP1]
IC50: 10 to 100 µM
